Data on 13 compounds can be found in patent publication EP0590563A1, “Biotin amides, a process for their preparation and therapeutical compositions containing them as the active principles for the treatment of diabetes and relative complicating diseases” (LIFEGROUP S.p.A., priority 1992, dated 1994).

What is called solubility is the concentration that dissolves in the medium under given conditions.

Where two headings read alike, the source gives them in different places.

A short description of one series: solubility in water. Type of series: physicochemical. The conditions noted are these: for solubility in water: result in words.
Series [1] is described as follows: solubility in organic solvents. In kind it is physicochemical. The note with it: organic solvent or mixture.
The test system of series [2] is diabetes induced by streptozotocin. In words: Experimental diabetes induced by streptozotocin. In kind it is in vivo, male Wistar rats. The note with it: for AcAc: Aceto Acetate. The protocol: The derivatives are then tested in order to define their biologic activity in experimental conditions of hyperglycemia induced both by food absence and by diabetes induced by streptozotocin. Hepatic glucokinase activity is examined in the experimental condition of food absence. Glycemia, insulinemia and the levels of Aceto Acetate (Ac.Ac.) are examined in the diabetes induced by streptozotocin.
10 male Wistar rats (200 g) are divided into 4 groups, the first group is composed by the controls, to the remaining groups streptozotocin is injected by intraperitoneal route (80 mg/kg). The third group is furthermore treated with biotin (3 mg/kg) by intraperitoneal route, and the fourth group with biotinyl ethanolamide (3 mg/kg) again by intraperitoneal route. The treatment is repeated for three days, then a blood sample is taken for analysis on the fifth day from the initial treatment.

Another series concerns diabetic patients. The note with it: 16mg/die for 1 week, insulin treatment interrupted; cited from earlier work.
For series [3] the following is noted: background statement, in words; cited from earlier work.
The next series has as its system neuropathy. The conditions noted are these: intramuscular for 6 weeks, with oral daily dose of 5 mg for about 2 years; cited from earlier work.
Series [4] concerns hepatic glucokinase. In words: Ex vivo hepatic glucokinasic activity, Experiment B. In kind it is in vivo, Sprague Dawley rat. The note with it: 2 mg/kg i.p., rats without food for 24 hours, 3 hours after the treatment. The protocol:
Also this experiment, like the previous one, is carried out by following Chauhan et al. process (J. Biol. Chem. 266, 10035, 1991), according to this process, hepatic glucokinase in the rat, which activity is depressed by food absence and it is reactivated by the biotin action.
Sprague Dawley rat weighing on average 260 g left without food for 24 hours, are divided into 15 groups, each of 13 groups are respectively intraperitoneally treated with 2 mg/kg of one of the compounds of the present invention hereinbelow reported in Table 1 or with the same dosage of biotin, all these substances being previously dissolved in physiological solutions. The obtained results are compared with those of the two groups corresponding to normal rats feeded ad libitum and with untreated rats left without food for 24 hours, all the animals had free admission to water.
3 hours after the treatment the rats are sacrificed by cerebral displacement. […] The homogenates are centrifugated at 100.000 x g for 60 minutes.Their proteic concentration is determined according to the above mentioned Bradford method (Anal. Biochem. 72, 248, 1976).
Glucokinase activity is evaluated according to Dakshinamurti et al. (Can. J. Biochem. 46, 75, 1968), and expressed as arbitrary units /proteic concentration of the samples.

In series [5] the test system is hepatic glucokinase. In words: Ex vivo hepatic glucokinasic activity, Experiment A. In kind it is in vivo, Wistar rats. The conditions noted are these: for Glucokinasic activity: 3 mg/kg i.p. after 24 hours without food, sacrifice after 6 hours, mean ± stan. deviation. The protocol: This experiment is carried out following to Chauhan et al. process (J. Biol. Chem. 266, 10035, 1991), according to this process, hepatic glucokinase in the rat, which activity is depressed by food absence is reactivated by the biotin action. 15 Wistar rats weighing on average 250 g are divided into three groups, the first one represent the controls, the second one is treated by intraperitoneal route with biotin (3 mg/kg) and the third group with biotinylethanolamine (3 mg/kg) again by intraperitoneal route. Rats are treated after 24 hours without food and after 6 hours are sacrificed by decapitation. Livers are homogenized in 5 volumes 50 mM Tris at pH 7, 0.15 M KCl, 5 mM EGTA, 4 mM MgCl₂, and 2 mM dithiothreitol and centrifugated at 100.000 x g for 60 minutes. The surnatant, frozen to -80 °C, is used for the analyses, after identifying proteins according to Bradford method (Anal. Biochem. 72, 248, 1976). Glucokinase is dosed by spectrophotometry according to Dakshinamurti et al. (Can. J. Biochem. 46, 75, 1968) with the following results: […]

Series [6] has as its system genetically diabetic mice KK. The conditions noted are these: 2mg/kg for 14 days; cited from earlier work.
[7] abbreviates: streptozotocin 80 mg/kg i.p., test substance 3 mg/kg i.p. for three days, blood sample on the fifth day.
Where [8] appears, read: result in words, 3 mg/kg i.p., streptozotocin rats.
Where [9] appears, read: aqueous buffer, in 0.1M phosphate buffer at pH 7.4.

Take `O=C(CCCC[C@@H]1SC[C@@H]2NC(=O)N[C@@H]21)NCCNC(=O)CCCC[C@@H]1SC[C@@H]2NC(=O)N[C@@H]21` [Example 6, N,N'bis-(β-biotinyl)-ethylendiamine]: the solubility in water result in the series “solubility in water” (water) was “poorly soluble”. Moreover, in series [1] (in hot DMSO), the solubility is above 2000 µg/mL.

In series [2] (setting [7]), `O=C(O)CCCC[C@@H]1SC[C@@H]2NC(=O)N[C@@H]21` [Biotin, biotin] yielded an AcAc of 0 nmol/L, a Glycemia of 7.4 ± 0.9 mmol/L and an insulinemia of 25.1 ± 1.5 mU/l. For the same compound, in [2] (setting [8]), the Glycemia entry was “normalized” and the insulinemia result is recorded as “active”. Besides, the hematic glucose rate result in the series with diabetic patients is “significant reduction”. Further, the solubility in water result in series [3] is reported as “poorly soluble in water”. For the same compound, in the series on neuropathy, the “conduction velocity at the level of the motor nerves and of the action sensory potentials” value is recorded as “slight improvement”; the subjective neurologic symptoms result is “marked improvement”. In addition, the glucokinase activity with hepatic glucokinase [4] is on record as 3.662± 0.280 UA/mg proteins. The compound further had a Glucokinasic activity in the series with hepatic glucokinase [5] of 3.96 ± 0.70 U./min/protein mg. In series [6], the glucose tolerance result is “improved sensibly”.

With `CCCCNC(=O)CCCC[C@@H]1SC[C@@H]2NC(=O)N[C@@H]21` [Example 8, N-β-biotinyl-1-aminobutane], in the series “solubility in water” (water), the solubility in water entry is “poorly soluble”. Besides, the solubility in [1] (in DMSO) is above 10000 µg/mL.

`N=C(N)NCCC[C@H](NC(=O)CCCC[C@@H]1SC[C@@H]2NC(=O)N[C@@H]21)C(=O)O` [Example 11, N-β-biotinyl-L-arginine]: the solubility (in “solubility in water” (water); in series [1] (in DMSO)) was above 10000 µg/mL in each case.

Regarding `O=C(CCCC[C@@H]1SC[C@@H]2NC(=O)N[C@@H]21)NC1CCCCC1` [Example 9, N-β-biotinyl-aminocyclohexane], the solubility in water result in “solubility in water” (water) was “poorly soluble”. The solubility in series [1] (in DMSO) was above 10000 µg/mL.

With `O=C(CCCC[C@@H]1SC[C@@H]2NC(=O)N[C@@H]21)NCCO` [Example 1, N-β-biotinyl-ethanolamine], the AcAc in series [2] (setting [7]) was found to be 0 nmol/L. Besides, the figures for the Glycemia result in series [2] (setting [8]) and in [2] (setting [7]) were “normalized” and 6.0 ± 0.5 mmol/L, respectively. The insulinemia result in series [2] (setting [8]) is reported as “active”; in series [2] (setting [7]), 23.5 ± 1.8 mU/l. In addition, the solubility (in “solubility in water” (water); in series [1] (in DMSO)) was above 10000 µg/mL in each case. For the same compound, the Glucokinasic activity with hepatic glucokinase [5] is on record as 4.27 ± 0.45 U./min/protein mg. Besides, the “Glucokinasic activity compared with biotin” value in the series on hepatic glucokinase [5] (result in words, after 6 hours, 3 mg/kg i.p.) is listed as “more active than biotin”.

Regarding `O=C(CCCC[C@@H]1SC[C@@H]2NC(=O)N[C@@H]21)NCc1ccccc1` [Example 4, N-β-biotinyl-benzylamine], the solubility in water entry in “solubility in water” (water) is given as “poorly soluble”. In addition, the solubility in [1] (in DMSO) and in series [1] (in ethanol) was above 10000 µg/mL in each case.

Take `O=C1N[C@H]2[C@H](CS[C@H]2CCCCC(=O)N2CCN(CCO)CC2)N1` [Example 3, N¹-β-biotinyl-N⁴-(2-hydroxyethyl) piperazine hydrochlorate]: the solubility (in the series “solubility in water” (water); in [1] (in DMSO)) was above 10000 µg/mL each time.

For `O=C(CCCC[C@@H]1SC[C@@H]2NC(=O)N[C@@H]21)NCCCCO` [Example 5, N-β-biotinyl-4-amino-butanol], the solubility is above 5000 µg/mL in “solubility in water” (water) and above 10000 µg/mL in [1] (in DMSO).

For the compound `O=C(CCCC[C@@H]1SC[C@@H]2NC(=O)N[C@@H]21)N[C@@H](CS)C(=O)O` [Example 12, N-β-biotinyl-L-cysteine], the solubility (in “solubility in water” (setting [9]); in series [1] (in DMSO)) was above 10000 µg/mL in each case.

Regarding `O=C(CCCC[C@@H]1SC[C@@H]2NC(=O)N[C@@H]21)N[C@@H](CO)C(=O)O` [Example 7, N-β-biotinyl-L-serine], the solubility (in the series “solubility in water” (setting [9]); in series [1] (in DMSO)) was above 10000 µg/mL each time.

On to `O=C(CCCC[C@@H]1SC[C@@H]2NC(=O)N[C@@H]21)NCc1ccc([N+](=O)[O-])cc1` [Example 10, N-β-biotinyl-4-nitrobenzylamine], for which the solubility in water entry in the series “solubility in water” (water) is recorded as “poorly soluble”. Also, the solubility in [1] (in DMSO) was above 10000 µg/mL.

For the compound `CN=C(N)NCCC[C@H](NC(=O)CCCC[C@@H]1SC[C@@H]2NC(=O)N[C@@H]21)C(=O)O` [Example 2, N-β-biotinyl-N^G-methyl-L-arginine], the solubility (in “solubility in water” (water); in series [1] (in DMSO)) was above 10000 µg/mL each time.
